Assay results as given in ChEMBL document CHEMBL6109124, “Identification of effective anti-osteosarcoma agents via screening of an in-house NQO1-targeted compound library” (Bioorg Med Chem, 2025).
pIC50: −log10 of the molar value. The source made the active and inactive calls. No cut-off for these calls is given here.

Key:
HOS-TE85 [1] = assay: Induction of apoptosis in human MNNG cells assessed as late apoptotic cells at 1 uM measured after 48 hrs by Alexa Fluor 488 Annexin V/propidium iodide staining based flow cytometry (reference value: 0.51%); assay type: functional
HOS-TE85 [2] = assay: Cell cycle arrest in human MNNG cells assessed as accumulation of cells at S phase at 5 uM measured after 24 hrs by propidium iodide staining based flow cytometry (reference value: 39.4%); assay type: functional
HOS-TE85 [3] = assay: Antitumor activity against human MNNG cells xenografted in Balb/c mouse assessed as tumor growth inhibition at 45 mg/kg, iv administered every 2 days for 3 weeks and measured daily during compound dosing relative to control; assay type: functional; details: HOS-TE85, 504 h, time 21 day, read-out: TGI
HOS-TE85 [4] = assay: Cell cycle arrest in human MNNG cells assessed as accumulation of cells at S phase at 10 uM measured after 24 hrs by propidium iodide staining based flow cytometry (reference value: 39.4%); assay type: functional
HOS-TE85 [5] = assay: Induction of apoptosis in human MNNG cells assessed as viable cells at 5 uM measured after 48 hrs by Alexa Fluor 488 Annexin V/propidium iodide staining based flow cytometry (reference value: 98.8%); assay type: functional; details: read-out: Activity
HOS-TE85 [6] = assay: Cell cycle arrest in human MNNG cells assessed as accumulation of cells at G0/G1 phase at 10 uM measured after 24 hrs by propidium iodide staining based flow cytometry (reference value: 51.4%); assay type: functional
HOS-TE85 [7] = assay: Induction of apoptosis in human MNNG cells assessed as early apoptotic cells at 5 uM measured after 48 hrs by Alexa Fluor 488 Annexin V/propidium iodide staining based flow cytometry (reference value: 0.69%); assay type: functional
HOS-TE85 [8] = assay: Cell cycle arrest in human MNNG cells assessed as accumulation of cells at G2/M phase at 1 uM measured after 24 hrs by propidium iodide staining based flow cytometry (reference value: 39.4%); assay type: functional
HOS-TE85 [9] = assay: Induction of apoptosis in human MNNG cells assessed as late apoptotic cells at 10 uM measured after 48 hrs by Alexa Fluor 488 Annexin V/propidium iodide staining based flow cytometry (reference value: 0.51%); assay type: functional
HOS-TE85 [10] = assay: Induction of apoptosis in human MNNG cells assessed as late apoptotic cells at 5 uM measured after 48 hrs by Alexa Fluor 488 Annexin V/propidium iodide staining based flow cytometry (reference value: 0.51%); assay type: functional
[11] = Toxicity in human MNNG cell xenografted Balb/c mouse assessed as effect on spleen at 15 to 45 mg/kg, iv administered every 2 days for 3 weeks and measured post last dose by H and E staining based microscopy; assay type: organism-based; details: in vivo, 504 h, dose 15-45 mg/kg, time 21 day
[12] = Toxicity in human MNNG cell xenografted Balb/c mouse assessed as effect on heart at 15 to 45 mg/kg, iv administered every 2 days for 3 weeks and measured post last dose by H and E staining based microscopy; assay type: organism-based; details: in vivo, 504 h, dose 15-45 mg/kg, time 21 day
[13] = Toxicity in human MNNG cell xenografted Balb/c mouse assessed as body weight loss at 15 to 45 mg/kg, iv administered every 2 days for 3 weeks and measured every other day during compound dosing; assay type: organism-based; details: in vivo, 504 h, dose 15-45 mg/kg, time 21 day
[14] = Selectivity index, ratio of IC50 for cytotoxicity against HUVEC to IC50 for cytotoxicity against human MNNG cells; assay type: toxicity, cell-based; details: HUVEC and human MNNG cells, read-out: Ratio IC50
HOS-TE85 [15] = assay: Antitumor activity against human MNNG cells xenografted in Balb/c mouse assessed as reduction in number of live cells in tumor at 15 to 45 mg/kg, iv administered every 2 days for 3 weeks and measured post last dose by H and E staining based microscopy; assay type: functional, organism-based; details: dose 15-45 mg/kg, time 21.0 day
[16] = Toxicity in human MNNG cell xenografted Balb/c mouse assessed as effect on liver at 15 to 45 mg/kg, iv administered every 2 days for 3 weeks and measured post last dose by H and E staining based microscopy; assay type: organism-based; details: in vivo, 504 h, dose 15-45 mg/kg, time 21 day
HOS-TE85 [17] = assay: Antitumor activity against iv dosed human MNNG cells xenografted in Balb/c mouse assessed as reduction in tumor cell proliferation administered every 2 days for 3 weeks and measured post last dose by Ki-67 staining based assay; assay type: functional, organism-based; details: dose 15-45 mg/kg, time 21.0 day
HOS-TE85 [18] = assay: Cytotoxicity against human MNNG cells assessed as cell growth inhibition measured after 72 hrs by MTT assay; assay type: functional, cell-based; details: HOS-TE85, 72 h
HOS-TE85 [19] = assay: Induction of apoptosis in human MNNG cells assessed as viable cells at 10 uM measured after 48 hrs by Alexa Fluor 488 Annexin V/propidium iodide staining based flow cytometry (reference value: 98.8%); assay type: functional; details: read-out: Activity
HOS-TE85 [20] = assay: Induction of apoptosis in human MNNG cells assessed as early apoptotic cells at 10 uM measured after 48 hrs by Alexa Fluor 488 Annexin V/propidium iodide staining based flow cytometry (reference value: 0.69%); assay type: functional
HOS-TE85 [21] = assay: Antitumor activity against human MNNG cells xenografted in Balb/c mouse assessed as tumor growth inhibition at 30 mg/kg, iv administered every 2 days for 3 weeks and measured daily during compound dosing relative to control; assay type: functional; details: HOS-TE85, 504 h, time 21 day, read-out: TGI
HOS-TE85 [22] = assay: Cell cycle arrest in human MNNG cells assessed as accumulation of cells at G2/M phase at 2.5 uM measured after 24 hrs by propidium iodide staining based flow cytometry (reference value: 39.4%); assay type: functional
HOS-TE85 [23] = assay: Induction of apoptosis in human MNNG cells assessed as early apoptotic cells at 1 uM measured after 48 hrs by Alexa Fluor 488 Annexin V/propidium iodide staining based flow cytometry (reference value: 0.69%); assay type: functional
HOS-TE85 [24] = assay: Antitumor activity against iv dosed human MNNG cells xenografted in Balb/c mouse assessed as increase in apoptotic cells administered every 2 days for 3 weeks and measured post last dose by TUNEL staining based assay; assay type: functional, organism-based; details: dose 15-45 mg/kg, time 21.0 day
[25] = Cytotoxicity against HUVEC assessed as cell growth inhibition measured after 72 hrs by MTT assay; assay type: toxicity, cell-based; details: human, HUVEC cells

For Cc1cc2c(cc1C)-c1oc(CN3CCOCC3)c(C)c1C(=O)C2=O, the Activity (HOS-TE85 [1]) was 6.97%, the Activity (HOS-TE85 [2]) was 37.8% and the inhibition in vivo at 45 mg/kg (HOS-TE85 [3]) was 73.6%. The Activity (HOS-TE85 [4]) was 26.1%, the viability at 5 µM (HOS-TE85 [5]) was 69% and the Activity (HOS-TE85 [6]) was 63.7%. For the same compound, the Activity (HOS-TE85 [7]) was 18.1%, the Activity (HOS-TE85 [8]) was 9.2% and the Activity (HOS-TE85 [9]) was 17.7%. The Activity (HOS-TE85 [10]) was 12.8%, the Activity [11] was “Non-toxic” and the Activity [12] was “Non-toxic”. For the same compound, the Activity [13] was “Non-toxic”, the selectivity ratio [14] was 13.3 and the Activity (HOS-TE85 [15]) was “Active”. For the same compound, the Activity [16] was “Non-toxic”, the Activity (HOS-TE85 [17]) was “Active” and the pIC50 (HOS-TE85 [18]) was 5.81. It also gave a viability at 10 µM (HOS-TE85 [19]) of 58.8%, an Activity (HOS-TE85 [20]) of 23.1% and an inhibition in vivo at 30 mg/kg (HOS-TE85 [21]) of 63.4%. The Activity (HOS-TE85 [22]) was 9.2%, the Activity (HOS-TE85 [23]) was 3.34% and the Activity (HOS-TE85 [24]) was “Dose-dependent-effect”. The IC50 at 72 h [25] was 19 µM.
